What was measured:
KKA^y mice [1] = experiment: Hypoglycemic and hypolipidemic (hypotriglyceridemic) actions in mice; type: in vivo; conditions: Mus musculus, po, 96 h, 0.01% in powdery diet, four days
Description: Hypoglycemic and Hypolipidemic (Hypotriglyceridemic) Actions in Mice
Test compounds were mixed in a powdery diet (CE-2, Japan Clea) at the concentration of 0.01%, and freely given to KKA^y mice (11 to 12 weeks old, 5 mice per group), a model of type 2 diabetes mellitus, for four days. During this period, water was given freely. Blood was sampled from orbital venous plexus, and glucose and triglyceride levels in plasma separated from the blood were determined enzymatically using L type Wako Glu2 (Wako Pure Chemical Industries, Ltd.) or L type Wako TG.H (Wako Pure Chemical Industries, Ltd.), respectively.
In the Table, “hypoglycemic action (%)” represents a percent reduction (%) of the blood glucose level in the treatment group when the blood glucose level in the non-treatment group is taken as 100%. In addition, “hypolipidemic action (%)” represents a percent reduction (%) of the blood triglyceride level in the treatment group when the blood triglyceride level in the non-treatment group is taken as 100%.

KKA^y mice [2] = experiment: Total cholesterol lowering action and plasma anti-arteriosclerosis index-enhancing action in mice; type: in vivo; conditions: Mus musculus, po, 96 h, 0.01% in powdery diet, four days; for change in vivo at 0.01 % in diet: percent increase of index [(HDL cholesterol/total cholesterol)×100] vs non-treatment group (100%); for inhibition in vivo at 0.01 % in diet: percent reduction of total cholesterol level vs non-treatment group (100%)
Description: Total Cholesterol Lowering Action and Plasma Anti-Arteriosclerosis Index-Enhancing Action in Mice
Test compounds were mixed in a powdery diet (CE-2, Japan Clea concentration of 0.01%, and freely given to KKA^y mice (11 to 12 weeks old, 5 mice per group), a model of type 2 diabetes mellitus, for four days. During this period, water was given freely. Blood was sampled from orbital venous plexus, and components in plasma separated from the blood were determined. Total cholesterol levels were determined using L type Wako Cholesterol (Wako Pure Chemical Industries, Ltd.). Precipitation reagent for HDL cholesterol was added to a part of the plasma to precipitate non-HDL lipoprotein, and cholesterol (HDL cholesterol) in the resulting supernatant was determined. The plasma anti-arteriosclerosis index [(HDL cholesterol/total cholesterol)×100] was calculated using these cholesterol levels.
In the Table, “total cholesterol lowering action (%)” represents a percent reduction (%) of the total cholesterol level in the treatment group when the total cholesterol level in the non-treatment group is taken as 100%. In addition, “plasma anti-arteriosclerosis index-enhancing action (%)” represents a percent increase (%) of the plasma anti-arteriosclerosis index in the treatment group when the plasma anti-arteriosclerosis index in the non-treatment group is taken as 100%.

PPARγ-RXRα heterodimer = target: T1, PPARγ-RXRα heterodimer (Homo sapiens, UniProt P37231); experiment: PPARγ-RXRα heterodimer ligand activity (luciferase reporter, PPARγ:RXRα:4ERPP/CHO-K1 cells); type: cell-based; conditions: concentration for 50% of maximum fold induction of luciferase, 48 hrs
T1 construct: expressed in transfected cells
T1 sequence (P37231 1-477 isoform P37231-2): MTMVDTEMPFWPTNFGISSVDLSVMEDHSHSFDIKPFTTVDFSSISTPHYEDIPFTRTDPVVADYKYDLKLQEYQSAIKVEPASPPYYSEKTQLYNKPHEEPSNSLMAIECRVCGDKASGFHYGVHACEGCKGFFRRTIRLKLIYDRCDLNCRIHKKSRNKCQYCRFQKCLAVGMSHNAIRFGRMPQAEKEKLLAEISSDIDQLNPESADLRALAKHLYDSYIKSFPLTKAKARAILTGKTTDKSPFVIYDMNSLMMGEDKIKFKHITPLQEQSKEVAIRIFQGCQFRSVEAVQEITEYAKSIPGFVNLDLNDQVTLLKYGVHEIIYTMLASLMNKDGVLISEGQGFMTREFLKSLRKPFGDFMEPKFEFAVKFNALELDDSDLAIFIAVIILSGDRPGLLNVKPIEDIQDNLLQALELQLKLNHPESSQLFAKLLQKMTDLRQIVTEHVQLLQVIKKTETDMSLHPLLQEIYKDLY
T1 sequence (P19793 1-462 partner): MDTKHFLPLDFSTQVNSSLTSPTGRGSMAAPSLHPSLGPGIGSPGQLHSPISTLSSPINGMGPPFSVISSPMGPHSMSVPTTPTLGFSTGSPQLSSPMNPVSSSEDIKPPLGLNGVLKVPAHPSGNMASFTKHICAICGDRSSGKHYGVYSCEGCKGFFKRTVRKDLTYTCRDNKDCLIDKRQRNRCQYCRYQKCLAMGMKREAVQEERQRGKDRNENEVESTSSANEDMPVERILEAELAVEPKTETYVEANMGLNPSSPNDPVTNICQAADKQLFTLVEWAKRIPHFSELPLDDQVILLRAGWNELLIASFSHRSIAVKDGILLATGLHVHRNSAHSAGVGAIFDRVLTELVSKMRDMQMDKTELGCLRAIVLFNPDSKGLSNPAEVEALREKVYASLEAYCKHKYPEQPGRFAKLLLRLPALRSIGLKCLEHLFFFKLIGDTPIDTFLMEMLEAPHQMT
Description: (PPARγ-RXRα Heterodimer Ligand Activity)
PPARγ:RXRα:4ERPP/CHO-K1 cells obtained in Reference Example 8a were cultured in HAM F12 medium (manufactured by NISSUI SEIYAKU) containing 10% fetal bovine serum [manufactured by Life Technologies, Inc., USA], seeded in a 96-well white plate [manufactured by Corning Coster Corporation, USA] at the density of 2×10^4 cells/well and cultured in a CO2 gas incubator at 37° C. overnight.
After washing the 96-well white plate with PBS (Phosphate-buffered saline), 90 μl of HAM F12 medium containing 0.1% fatty acid-free bovine serum albumin (BSA) and 10 μl of test compound were added, and the cells were cultured in a CO2 gas incubator at 37° C. for 48 hrs. The medium was removed and 40 μl of PicaGene 7.5 (manufactured by Wako Pure Chemical Industries, Ltd.) was added. After stirring, the luciferase activity was determined using Lumistar [manufactured by BMG Labtechnologies GmbH, Germany].
The fold induction was calculated from the luciferase activity of each test compound when the luciferase activity of the non-treatment group is taken as 1. The values of the test compound concentration and the fold induction were analyzed using PRISM 2.01 (produced by GraphPad Software Inc. USA) to calculate the EC50 values, the effective concentration of a test compound for 50% of the maximum fold induction.
Introduction of Human PPARγ- and RXRα-Expression Plasmid and Reporter Plasmid into CHO-K1 Cell and Establishment of Expressed Cell
After a CHO-K1 cell cultured in a tissue culture flask (750 ml) (produced by Corning Costar Corporation, USA) containing HAM F12 medium (produced by NISSUI SEIYAKU) supplemented with 10% fetal bovine serum (produced by Life Technologies, Inc., USA) was scraped by treating with 0.5 g/L trypsin-0.2 g/L EDTA (ethylenediaminetetraacetic acid) (produced by Life Technologies, Inc., USA), the cell was washed with PBS (phosphate-buffered saline) (produced by Life Technologies, Inc., USA), centrifuged (1000 rpm, 5 minutes), and then suspended in PBS. Subsequently, a DNA was introduced into the cell under the conditions shown below using GENE PULSER (produced by Bio-Rad Laboratories, USA).
Namely, to a cuvette having a 0.4 cm gap, added were 8×10^6 cells and 10 μg of plasmid pVgRXR2-hPPARγ obtained in Reference Example 7a and 10 μg of reporter plasmid pGL3-4ERPP-TK neo obtained in Reference Example 4a, which was subjected to electroporation at the voltage of 0.25 kV under the capacitance of 960 μF. Subsequently, the cell was transferred into a HAM F12 medium containing 10% fetal bovine serum and cultured for 24 hours and then the cell was scraped again and centrifuged, and then suspended in HAM F12 medium containing 10% fetal bovine serum supplemented with 500 μg/ml of GENETICIN, (produced by Life Technologies, Inc., USA) and 250 μg /ml of ZEOCIN (produced by Invitrogen, USA). The obtained suspension was diluted to the density of 10^4 cells/ml and inoculated to a 96-well plate (produced by Corning Costar Corporation, USA), which was cultured in a CO2 gas incubator at 37° C., whereby obtaining a GENETICIN- and ZEOCIN-resistant transformant.
Subsequently, after the transformant cell line thus obtained was cultured in a 24-well plate (produced by Corning Costar Corporation, USA), selected was a cell line in which the luciferase was expressed and induced, i.e., PPARγ:RXRα:4ERPP/CHO-K1 cell by the addition of 10 μM pioglitazone hydrochloride.

[3] = percent reduction of blood glucose level vs non-treatment group (100%), read-out: Hypoglycemic action (%)
[4] = percent reduction of blood triglyceride level vs non-treatment group (100%), read-out: Hypolipidemic action (%)

| SMILES | inhibition in vivo at 0.01 % in diet (KKA^y mice [1]; [3]) [%] | inhibition in vivo at 0.01 % in diet (KKA^y mice [1]; [4]) [%] | change in vivo at 0.01 % in diet (KKA^y mice [2]) [%] | inhibition in vivo at 0.01 % in diet (KKA^y mice [2]) [%] | EC50 (PPARγ-RXRα heterodimer) [nM] | melting point [°C] |
| --- | --- | --- | --- | --- | --- | --- |
| Cc1oc(-c2ccccc2)nc1COc1ccc(COc2nn(-c3ccccc3)cc2CC(=O)O)cc1 [Example 50, [3-[4-(5-methyl-2-phenyl-4-oxazolylmethoxy)benzyloxy]-1-phenyl-1H-pyrazol-4-yl]acetic acid] | 46 | 81 | 12 | 8 | 3.9 | 151 to 152 |
| COc1cc(COc2nn(-c3ccccc3)cc2CC(=O)O)ccc1OCc1nc(-c2ccccc2)oc1C [Example 52, [3-[3-methoxy-4-(5-methyl-2-phenyl-4-oxazolylmethoxy)benzyloxy]-1-phenyl-1H-pyrazol-4-yl]acetic acid] | 50 | 82 | 16 | 22 | 0.38 | 147 to 148 |
| Cc1oc(-c2ccccc2)nc1COc1ccc(COc2nn(-c3ccccc3)cc2CC(=O)O)cn1 [Example 54, [3-[6-(5-methyl-2-phenyl-4-oxazolylmethoxy)-3-pyridylmethoxy]-1-phenyl-1H-pyrazol-4-yl]acetic acid] | 52 | 89 | 14 | 18 | 0.64 | 164 to 165 |

From patent US7241785B2, “Five-membered heterocyclic alkanoic acid derivative” (Takeda Pharmaceutical Company Limited, priority 2001, dated 2007)
